Test results as given in paper PMC11673756, “Urolithin A Protects Hepatocytes from Palmitic Acid-Induced ER Stress by Regulating Calcium Homeostasis in the MAM” (Biomolecules, 2024).

Biological target: T1, CCDC47 (Coiled-Coil Domain Containing 47) (Homo sapiens, UniProt Q96A33)
T1 construct: endogenous CCDC47 in HepG2 cells
T1 sequence (Q96A33 21-483): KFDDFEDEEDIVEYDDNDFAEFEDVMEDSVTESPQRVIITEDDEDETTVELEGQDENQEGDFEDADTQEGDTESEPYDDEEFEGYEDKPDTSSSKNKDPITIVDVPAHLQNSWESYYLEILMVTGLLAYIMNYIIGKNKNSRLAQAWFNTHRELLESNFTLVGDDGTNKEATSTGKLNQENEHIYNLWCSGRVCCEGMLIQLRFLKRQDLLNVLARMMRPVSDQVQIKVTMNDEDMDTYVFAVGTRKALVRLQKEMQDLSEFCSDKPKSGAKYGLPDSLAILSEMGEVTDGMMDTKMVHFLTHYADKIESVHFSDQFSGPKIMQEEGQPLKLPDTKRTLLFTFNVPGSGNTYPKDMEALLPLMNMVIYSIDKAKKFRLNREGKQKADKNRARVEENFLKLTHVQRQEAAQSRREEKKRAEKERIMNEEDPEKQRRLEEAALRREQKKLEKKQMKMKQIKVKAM
Experiment: isothermal CETSA at […] °C
Type: cell-based

EC50: ~38 µM
SMILES: O=c1oc2cc(O)ccc2c2ccc(O)cc12 [UA, Urolithin A]
